Consider 38 compounds from patent publication US8637558B2 (Industry-Academic Cooperation Foundation, Chosun University, priority 2008, dated 2014).

Bounds are passed on as bounds.

A word on the IC50: it is the concentration that inhibits the measured activity by half.

Chain of 15-PGDH (P15428 whole entry): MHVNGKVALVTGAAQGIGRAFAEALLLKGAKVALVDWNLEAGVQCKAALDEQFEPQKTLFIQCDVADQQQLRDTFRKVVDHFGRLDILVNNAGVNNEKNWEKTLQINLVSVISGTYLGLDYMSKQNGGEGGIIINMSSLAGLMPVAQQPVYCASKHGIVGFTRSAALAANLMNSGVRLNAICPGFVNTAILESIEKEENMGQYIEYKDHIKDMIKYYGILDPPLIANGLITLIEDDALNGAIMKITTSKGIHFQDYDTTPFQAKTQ

The target in the assay is 15-PGDH (Homo sapiens (Human), UniProt P15428). The assay is described as follows: Assay for the activities of 15-PGDH inhibitors (formation of NADH at 340 nm). It counts as biochemical. Particulars: purified 15-PGDH enzyme, 21 μM PGE2, 0.25 mM NAD+, pH 7.5; concentration inhibiting 50% of 15-PGDH activity. On the procedure:
<1-1> Expression and Purification of 15-PGDH
A 15-PGDH cDNA plasmid containing BamHI and EcoRI sites of the pGES-2T expression vector was used to transform Escherichia coli BL-21 lysS in accordance with the ordinarily used in the art. The transformed cells were grown in 500 mL LB medium containing 50 μg/mL ampicillin at 37° C. while being stirred at 220 rpm until the OD600 reached 0.6. Isopropyl β-D-thiogalactoside (1 mM) was added and the cells were allowed to grow for 12 hours at 25° C. Then, the pellets were harvested by centrifugation at 4000×g for 30 minutes at 4° C. The cell pallets were resuspended in 20 mL cell lysis buffer (1×PBS buffer (pH 7.4) containing 1 mM EDTA and 0.1 mM DTT) and sonicated (14×10 s at 4° C.). The disrupted cells were centrifuged at 4000×g for 20 minutes at 4° C. The supernatant was loaded slowly on a glutathione-sepharose 4B column, which was equilibrated at 4° C. with a cell lysis buffer (1×PBS buffer (pH 7.4) containing 1 mM EDTA and 0.1 mM DTT). The column was washed with the lysis buffer until OD280 reached below 0.005. Then, 15-PGDH was eluted from the glutathione-sepharose 4B column at room temperature for 5 minutes by using the elution buffer (50 mM Tris-HCl (pH 8.0) containing 10 mM reduced glutathione, 1 mM EDTA and 0.1 mM DTT). The concentration and the purity of the purified enzyme were determined by SDS-PAGE.
<1-2> Assay for the Activities of 15-PGDH Inhibitors
The absorbance of the reaction mixture was recorded at 340 nm so that the activities of the derivatives according to the present invention as 15-PGDH inhibitors were determined from a standard curve prepared from the absorbance of various concentrations of NADH at 340 nm.
Turning to `CC1(COc2ccc(/C=C3\SC(=O)NC3=O)cc2)CCCCC1` [Derivative 43, 5-(4-((1-methylcyclohexyl)methoxy)benzylidene)thiazolidine-2,4-dione], the IC50 was found to be 547 nM.
With `O=C1NC(=O)/C(=C/c2ccc(OCc3ccccc3)cc2)S1` [Derivative 44, 5-(4-(benzyloxy)benzylidene)thiazolidine-2,4-dione] the figure was 1040 nM; with `O=C1NC(=O)/C(=C/c2ccc(OC3CCCCC3)cc2)S1` [Derivative 45, 5-(4-(cyclohexyloxy)benzylidene)thiazolidine-2,4-dione], 822 nM.
Compound `O=C1NC(=O)/C(=C/c2ccc(OCCC3CCCCC3)cc2)S1` [Derivative 46, 5-(4-(2-cyclohexylethoxy)benzylidene)thiazolidine-2,4-dione] gave a 50% inhibitory concentration (IC50) of 50.9 nM.
As for `O=C1NC(=O)/C(=C/c2ccc(OCCC3CCCCC3)c([N+](=O)[O-])c2)S1` [Derivative 49, 5-(4-(2-cyclohexylethoxy)-3-nitrobenzylidene)thiazolidine-2,4-dione], the figure is 59.5 nM; as for `Nc1cc(/C=C2\SC(=O)NC2=O)ccc1OCCC1CCCCC1` [Derivative 50, 5-(3-amino-4-(2-cyclohexylethoxy)benzylidene)thiazolidine-2,4-dione], 286 nM.
`Cc1cc(/C=C2\SC(=O)NC2=O)ccc1OCC1CCCCC1` [Derivative 51, 5-(4-(2-cyclohexylmethoxy)-3-methylbenzylidene)thiazolidine-2,4-dione]: the IC50 was found to be 49.8 nM.
Compound `O=C1NC(=O)/C(=C/c2ccc(Oc3ccccc3)cc2)S1` [Derivative 54, 5-(4-phenoxybenzylidene)-1,3-thiazolidine-2,4-dione] came in with a 50% inhibitory concentration (IC50) of over 20000 nM.
On to `O=C1NC(=O)/C(=C/c2ccc(OCCc3ccccc3)cc2)S1` [Derivative 55, 5-[4-(2-phenylethoxy)benzylidene]-1,3-thiazolidine-2,4-dione], for which the IC50 came to 117 nM.
Take `CCOc1cc(/C=C2\SC(=O)NC2=O)ccc1OCCC1CCCCC1` [Derivative 59, 5-(4-(2-cyclohexylethoxy)-3-ethoxybenzylidene)thiazolidine-2,4-dione]: the IC50 was 259 nM.
As for `COc1cc(OCCC2CCCCC2)ccc1/C=C1\SC(=O)NC1=O` [Derivative 60, 5-(4-(2-cyclohexylethoxy)-2-methoxybenzylidene)thiazolidine-2,4-dione], the figure is 3560 nM; as for `O=C1NC(=O)/C(=C/c2ccc(OCC3COc4ccccc4O3)cc2)S1` (centres unmarked) [Derivative 62, 5-(4-((2,3-Dihydrobenzo[b][1,4]dioxin-2-yl)methoxy)benzylidene) thiazolidine-2,4-dione], 172 nM.
As for `O=C1NC(=O)/C(=C/c2cccc(OCC3CCCCC3)c2Cl)S1` [Derivative 63, 5-(2-chloro-3-(cyclohexylmethoxy)benzylidene)thiazolidine-2,4-dione], the figure is 57.6 nM; as for `O=C1NC(=O)/C(=C/c2cccc(OCCCC3CCCCC3)c2Cl)S1` [Derivative 64, 5-(2-chloro-3-(cyclohexylpropoxy)benzylidene)thiazolidine-2,4-dione], 59 nM.
With `CC1CCC(COc2ccc(/C=C3\SC(=O)NC3=O)cc2C(F)(F)F)CC1` (centres unmarked) [Derivative 65, 5-[4-((4-methylcyclohexyl)methoxy)-3-(trifluoromethyl)benzylidene]thiazolidine-2,4-dione] the figure was 31.4 nM.
`COC(=O)C1CCC(COc2ccc(/C=C3\SC(=O)NC3=O)cc2)CC1` (centres unmarked) [Derivative 66, methyl-4-((4-((2,4-dioxothiazolidine-5-ylidene)methyl)phenoxy)methyl)cyclohexane carboxylate] yielded an IC50 of 20.4 nM.
With `COc1ccc(/C=C2\SC(=O)NC2=O)cc1OCCC1CCCCC1` [Derivative 67, 5-(3-(2-cyclohexylethoxy)-4-methoxybenzylidene)thiazolidine-2,4-dione] the figure was 1160 nM.
With `O=C1NC(=O)/C(=C/c2ccc(OCCc3ccccc3)c(Cl)c2)S1` [Derivative 69, 5-(3-chloro-4-phenylethoxybenzylidene)thiazolidine-2,4-dione] the figure was 19.8 nM; with `O=C1NC(=O)/C(=C/c2ccc(OCCCc3ccccc3)c(Cl)c2)S1` [Derivative 70, 5-(3-chloro-4-(3-phenylpropoxy)benzylidene)thiazolidine-2,4-dione], 38.1 nM.
As for `O=C1NC(=O)/C(=C/c2cccc(OCCc3ccccc3)c2Cl)S1` [Derivative 73, 5-(2-chloro-3-phenylethoxybenzylidene)thiazolidine-2,4-dione], the figure is 122 nM; as for `O=C1NC(=O)/C(=C/c2cccc(OCCCc3ccccc3)c2Cl)S1` [Derivative 75, 5-(2-chloro-3-(3-phenylpropoxy)benzylidene)thiazolidine-2,4-dione], 44.9 nM; as for `O=C1NC(=O)/C(=C/c2ccc(OCc3ccc(-c4ccccc4)cc3)cc2)S1` [Derivative 76, 5-(4-(biphenyl-4-ylmethoxy)benzylidene)thiazolidine-2,4-dione], 814 nM.
For the compound `O=C1NC(=O)/C(=C/c2cc(F)c(OCCC3CCCCC3)c(Cl)c2)S1` [Derivative 77, 5-(3-chloro-5-fluoro-4-(2-cyclohexylethoxy)benzylidene)thiazolidine-2,4-dione], the IC50 amounted to 177 nM.
As to `COc1cc(/C=C2\SC(=O)NC2=O)cc(Cl)c1OCCC1CCCCC1` [Derivative 78, 5-(3-chloro-4-(2-cyclohexylethoxy)-5-methoxybenzylidene) thiazolidine-2,4-dione], 50.6 nM corresponded to half-maximal inhibition (IC50).
As for `O=C1NC(=O)/C(=C/c2ccc([N+](=O)[O-])c(OCCC3CCCCC3)c2)S1` [Derivative 79, 5-(3-(2-cyclohexylethoxy)-4-nitrobenzylidene)thiazolidine-2,4-dione], the figure is 2820 nM; as for `COc1ccc(/C=C2\SC(=O)NC2=O)c(Cl)c1OCCC1CCCCC1` [Derivative 80, 5-(2-chloro-3-(2-cyclohexylethoxy)-4-methoxybenzylidene) thiazolidine-2,4-dione], 110 nM.
As for `O=C1NC(=O)/C(=C/c2ccc(OCCC3CCCCC3)cc2C(F)(F)F)S1` [Derivative 81, 5-(4-(2-cyclohexylethoxy)-2-(trifluoromethyl)benzylidene)thiazolidine-2,4-dione], the figure is 136 nM; as for `O=C1NC(=O)/C(=C/c2cc(OCCC3CCCCC3)ccc2[N+](=O)[O-])S1` [Derivative 83, 5-(5-(2-cyclohexylethoxy)-2-nitrobenzylidene)thiazolidine-2,4-dione], 6280 nM.
As for `O=C1NC(=O)/C(=C/c2ccc(OCc3ccccc3)cc2Cl)S1` [Derivative 85, 5-(4-(benzyloxy)-2-chlorobenzylidene)thiazolidine-2,4-dione], the figure is 487 nM.
In turn, `O=C1NC(=O)/C(=C/c2ccc(OCCc3ccccc3)cc2Cl)S1` [Derivative 86, 5-(2-chloro-4-phenylethoxybenzylidene)thiazolidine-2,4-dione] showed an IC50 of 178 nM.
As for `O=C1NC(=O)/C(=C/c2ccc(OCCCc3ccccc3)cc2Cl)S1` [Derivative 87, 5-(2-chloro-4-phenylpropoxybenzylidene)thiazolidine-2,4-dione], the figure is 52 nM; as for `O=C1NC(=O)/C(=C/c2ccc(OCCN3CCS(=O)(=O)CC3)c([N+](=O)[O-])c2)S1` [Derivative 90, 5-[3-nitro-4-(2-thiomorpholine1,1-Dioxideethoxy)benzylidene]-2,4-thiazolidinedione], 2450 nM; as for `CC1CCC(COc2cccc(/C=C3\SC(=O)NC3=O)c2Cl)CC1` (centres unmarked) [Derivative 91, 5-{2-chloro-3-[(4-methylcyclohexyl)methoxy]benzylidene}-1,3-thiazolidine-2,4-dione], 135 nM.
Consider `O=C1NC(=O)/C(=C/c2cccc(OCCc3ccccn3)c2Cl)S1` [Derivative 93], for which half-maximal inhibition (IC50) was put at 10300 nM.
The compound `CC(C)OCCOc1ccc(/C=C2\SC(=O)NC2=O)cc1Cl` [Derivative 94, 5-{3-chloro-4-[2-(propan-2-yloxy)ethoxy]benzylidene}-1,3-thiazolidine-2,4-dione] displayed an IC50 of 2740 nM.
With `O=C1NC(=O)/C(=C/c2ccc(OC3CCCCC3)cc2Cl)S1` [Derivative 95, 5-(2-chloro-4-(cyclohexyloxy)benzylidene)thiazolidine-2,4-dione] the figure was 233 nM; with `O=C1NC(=O)/C(=C/c2ccc(OCC3CCCCC3)cc2Cl)S1` [Derivative 96, 5-(2-chloro-4-(3-cyclohexylmethoxy)benzylidene)thiazolidine-2,4-dione], 2450 nM.
As for `O=C1NC(=O)/C(=C/c2ccc(OCCCC3CCCCC3)cc2Cl)S1` [Derivative 97, 5-(2-chloro-4-(3-cyclohexylpropoxy)benzylidene)thiazolidine-2,4-dione], the figure is 284 nM.
